Assay type in all cases: in vivo
The test system of data set [1] is Scirpus maritimus. Description: Table 15 greenhouse trial, treatment at the 2-3 leaf stage: weed control. Particulars: 20 days after application. Here is the method:
(§1) Seeds or rhizome pieces of mono- and dicotyledonous weed plants are placed into sandy loam soil in plastic pots, covered with soil and grown in a greenhouse under good growth conditions (temperature, atmospheric humidity, water supply). Weeds which are encountered in the cultivation of rice are cultivated in pots in which the water level is up to 2 cm over the soil surface. Three weeks after sowing, the test plants are treated at the three-leaf stage. The active compound combinations according to the invention, formulated as wettable powders or emulsion concentrates, and, in parallel experiments, the correspondingly formulated individual active compounds are sprayed onto the green parts of the plants at different dosages using an amount of water of 300 to 600 l/ha (converted), and, after about 3 to 4 weeks of the test plants in the greenhouse under optimum growth conditions (temperature, atmospheric humidity, water supply), the effect of the preparations is evaluated visually in comparison to untreated controls. In the case of rice or weeds which are encountered in the cultivation of rice, the active compounds are also added directly to the water for irrigation (application analogous to the so-called granules application) or sprayed onto plants and added to the water for irrigation. The experiments were designed with several, up to five, repetitions. The herbicidal compositions according to the invention also have good herbicidal post-emergence activity against a broad spectrum of economically important weed grasses and broad-leaved weeds.

Data set [2] relates to Oryza sativa. Description: Table 15 greenhouse trial, treatment at the 2-3 leaf stage: rice damage. Particulars: 20 days after application. The protocol:
as §1

Data set [3] has as its system Oryza sativa. Description: Table 16 greenhouse trial, treatment at the 2-3 leaf stage: rice damage. Particulars: 20 days after application. Here is the method: as §1
(§2) Greenhouse trail: Treatment at the 2-3 leaf stage, evaluation 20 days after the application.

Data set [4] concerns Cyperus serotinus. Description: Table 16 greenhouse trial, treatment at the 2-3 leaf stage: weed control. The conditions noted are these: 20 days after application. Here is the method:
as §1, §2

For data set [5], the system named is Oryza sativa. Description: Table 10 greenhouse trial, treatment at the 1-2 leaf stage: rice damage. Particulars: greenhouse trial, 20 days after application. Here is the method:
as §1
(§3) Greenhouse trial: Treatment at the 1-2 leaf stage, evaluation 20 days after the application.

Data set [6] has as its system Scirpus juncoides. Description: Table 10 greenhouse trial, treatment at the 1-2 leaf stage: weed control. Particulars: 20 days after application. The protocol: as §1, §3
For data set [7], the system named is Sagittaria pygmaea. Description: Table 14 greenhouse trial, treatment at the 3-4 leaf stage: weed control. Particulars: 21 days after application. The protocol:
as §1
(§4) Greenhouse trial: Treatment at the 3-4 leaf stage, evaluation 21 days after the application.

Data set [8] deals with Oryza sativa. Description: Table 14 greenhouse trial, treatment at the 3-4 leaf stage: rice damage. The conditions noted are these: 21 days after application. The protocol: as §1, §4
The test system of data set [9] is Echinochloa crusgalli. Description: Table 17 field trial, treatment at the 2 leaf stage: weed control. Particulars: 14 days after application. An excerpt: Field trial: Treatment at the 2 leaf stage, evaluation 14 days after the application.

Consider `COc1cc(OC)nc(NC(=O)NS(=O)(=O)c2c(-c3nnn(C)n3)cnn2C)n1` [B64), azimsulfuron], for which the SCIMA % control in [1] (5 g of ai/ha) turned out to be 78%; in data set [1] (9 g of ai/ha), 80%; in data set [1] (18 g of ai/ha) it was 83%; in data set [1] (37 g of ai/ha) it was 85%. The ORYSW % damage in data set [2] (5 g of ai/ha) amounted to 3%; in [2] (9 g of ai/ha), 8%; in data set [2] (18 g of ai/ha) it was 10%; in [2] (37 g of ai/ha), 10%.

As for `COc1cc(OC)nc(Oc2cccc(Oc3nc(OC)cc(OC)n3)c2C(=O)ON=C(c2ccccc2)c2ccccc2)n1` [B72), pyribenzoxim], the ORYSW % damage worked out at 3% in [3] (18.75 g of ai/ha), 8% in [3] (37.5 g of ai/ha) and 8% in data set [3] (75 g of ai/ha). Further, the CYPSE % control in data set [4] (18.75 g of ai/ha) came out at 25%; in [4] (37.5 g of ai/ha) it was 35%; in [4] (75 g of ai/ha), 60%.

Consider `COc1cc(OC)nc(NC(=O)NS(=O)(=O)c2c(C(=O)O)cnn2C)n1` [B59), 5-[[[[(4,6-dimethoxy-2-pyrimidinyl)amino]carbonyl]-amino]sulfonyl]-1-methyl-1H-pyrazol-4-carboxylic acid], for which the ORYSW % damage in [5] (7.5 g of ai/ha) is 0%; in data set [5] (15 g of ai/ha), 0%; in [5] (30 g of ai/ha), 2%. Also, the SCIJU % control in [6] (7.5 g of ai/ha) is recorded as 50%; in data set [6] (15 g of ai/ha) it was 55%; in [6] (30 g of ai/ha) it was 60%.

Consider `CC1=C(c2ccccc2)C(=O)N(C(C)(C)c2cc(Cl)cc(Cl)c2)CO1` [B73), oxaziclomefone], for which the SAGPY % control was 10% in [7] (50 g of ai/ha), 15% in data set [7] (100 g of ai/ha) and 20% in data set [7] (200 g of ai/ha). Further, the ORYSW % damage turned out to be 0% in [8] (50 g of ai/ha), 0% in data set [8] (100 g of ai/ha) and 5% in [8] (200 g of ai/ha).

With `CCCOCCN(C(=O)CCl)c1c(CC)cccc1CC` [B4), 2-chloro-N-(2,6-diethylphenyl)-N-(2-propoxyethyl)acetamide], the figures for the SAGPY % control in data set [7] (125 g of ai/ha), in data set [7] (250 g of ai/ha) and in data set [7] (500 g of ai/ha) were 65%, 70% and 75%, respectively. Besides, the values for the ORYSW % damage in data set [8] (125 g of ai/ha), in [8] (250 g of ai/ha) and in data set [8] (500 g of ai/ha) were 15%, 15% and 35%, respectively.

On to `C#CCOc1cc(-n2nc(C(C)(C)C)oc2=O)c(Cl)cc1Cl` [B51), 5-tert-butyl-3-[2,4-dichloro-5-(prop-2-ynyloxy)-phenyl]-1,3,4-oxadiazol-2(3H)-one], for which the ECHCG % control amounted to 37% in data set [9] (25 g of ai/ha), 63% in data set [9] (50 g of ai/ha), 63% in data set [9] (100 g of ai/ha) and 80% in data set [9] (200 g of ai/ha).

In the case of `O=C(O)c1c(Cl)ccc2cc(Cl)cnc12` [B13), 3,7-dichloro-8-quinolincarboxylic acid], the SAGPY % control in [7] (250 g of ai/ha), in data set [7] (500 g of ai/ha) and in [7] (1000 g of ai/ha) was 30% throughout. For the same molecule, the ORYSW % damage in data set [8] (250 g of ai/ha), in data set [8] (500 g of ai/ha) and in data set [8] (1000 g of ai/ha) was 0% throughout.

`COc1cc(OC)nc(NC(=O)NS(=O)(=O)Cc2ccccc2C(=O)O)n1` [B58), 2-[[[[[(4,6-dimethoxy-2-pyrimidinyl)amino]carbonyl]-amino]sulfonyl]methyl]benzoic acid]: the ORYSW % damage in data set [5] (7.5 g of ai/ha) is 0%; in data set [5] (15 g of ai/ha), 0%; in data set [5] (30 g of ai/ha), 2%; in data set [5] (60 g of ai/ha) it was 5%. The SCIJU % control in [6] (7.5 g of ai/ha) is on record as 35%; in data set [6] (15 g of ai/ha) it was 40%; in [6] (30 g of ai/ha), 55%; in data set [6] (60 g of ai/ha) it was 60%.

The values are drawn from patent publication US6864217B2, “Herbicidal compositions with substituted phenylsulfonylureas for controlling weeds in rice” (Hoechst Schering AgrEvo GmbH, priority 1998, dated 2005).
